For assay [1], the system named is Rattus norvegicus. The assay can be described thus: Inhibition of ADP-induced platelet aggregation in Wistar rat blood at 10 mg/kg, po after 5 mins by aggregometer analysis relative to vehicle-treated control.
For assay [2], the system named is Rattus norvegicus. The assay can be described thus: Inhibition of ADP-induced platelet aggregation in Wistar rat blood at 10 mg/kg, po after 2 hrs by aggregometer analysis relative to vehicle-treated control.

Aggregation data for 4 compounds are collected here from ChEMBL document CHEMBL2331123, “Deuterated clopidogrel analogues as a new generation of antiplatelet agents” (ACS Med Chem Lett, 2013).

With `[3H]C1([3H])c2ccsc2C([3H])([3H])C([3H])([3H])N1C(C(=O)OC)c1ccccc1Cl` (stereo not drawn), the aggregation at 10 mg/kg with Rattus norvegicus [1] amounted to 7%; in the assay on Rattus norvegicus [2], 50.6%.
Turning to `[3H]C1([3H])c2sccc2CN(C(C(=O)OC)c2ccccc2Cl)C1([3H])[3H]` (stereo not drawn), the figures for the aggregation at 10 mg/kg with Rattus norvegicus [1] and with Rattus norvegicus [2] were 7.3% and 49.1%, respectively.
In the same order, the values of `[3H]C1([3H])c2ccsc2CCN1C(C(=O)OC)c1ccccc1Cl` (stereo not drawn) are 12.9% and 50.4%.
For `COC(=O)C(c1ccccc1Cl)N1CCc2sccc2C1` (stereo not drawn) the same measures were 29.4% and 60.4%.
